System: A549 cells
Experiment: confocal microscopy of ceramide and caspase 8
Format: cell-based, human
Conditions: 300 nM, 30 minutes after treatment
Experimental: Confocal microscopy. […] After treatment, the cells were fixed 10 minutes at room temperature with 4% PFA, washed twice with PBS, permeabilized 2 minutes at room temperature with 0.1% triton in PBS and blocked for 30 minutes with sterile 2% BSA in PBS. The staining was performed at room temperature for 2 hours (h), with mouse monoclonal anti-human ceramide (Alexis) and rabbit anti-human caspase 8 (BD Pharmingen) antibodies followed by secondary goat anti-mouse ALEXA FLUOR568™ and goat anti-rabbit ALEXA FLUOR488™ antibodies (Invitrogen). The blue DNA binding dye TOPRO-3™ (Molecular Probes) was added together with the secondary antibodies. The cells were washed three times with PBS between the different incubation steps and the incubation with the secondary fluorescently labeled antibodies was performed in the dark. All antibodies were diluted in PBS. Confocal images were recorded on a Nikon ECLIPSE C1™ confocal microscope.

CCCCC/C=C\C/C=C\C/C=C\C/C=C\CCCC(=O)O [arachidonic acid, reference compound]
cell surface ceramide: absent

Reference: patent US9045401B2, “Methods for treating or ameliorating a melanoma and killing melanoma cells” (THE REGENTS OF THE UNIVERSITY OF CALIFORNIA, priority 2007, dated 2015)
